Entries after “also recorded” stand apart in the source; their conditions may differ. Positions of bridges follow the written chain, without caps; N, C: chain ends. No end group written: not given here.

What all share (assay type): in vivo
Test [1] has as its system wild-type mice. The experiment in a line: Rate of pinopode formation throughout a treatment time course. The settings on record: AM 150 pmol, days 2.5-3.5 of pseudopregnancy, vs vehicle. Here is the method:
A, Scanning electron micrographs of vehicle- and AM-treated uteri throughout treatment time course. Scale bars, 1 μm. B, Quantitation of pinopodes per field throughout treatment time course. *p<0.05 at indicated time point, unpaired t test.
Further studies were performed to measure the effect of AM (150 pmol) on the rate of pinopode formation. The number of pinopodes was quantitated throughout a time course of AM treatment in wild-type mice (FIGS. 4A-4B).

For another test, the system named is BalbC mice. The test can be described thus: Blastocyst transfer after intrauterine injection: number and spacing of viable implantation sites. The settings on record: AM 150 pmol into lumen of each uterine horn, day 2.5 of pseudopregnancy, evaluated three days post-transfer, vs vehicle. An excerpt:
A, Images of e6.5 embryos within uteri treated with vehicle, AM, or AM+AM(24-50) prior to transfer of 8 blastocysts per horn. Arrowheads indicate viable implantation sites as determined by uptake of Evans blue dye. Scale bar, 1 cm. B, Quantitation of viable implant sites per horn. ns, not significant. *p<0.05, Mann-Whitney test. C, Illustration of quantitation method for spacing of e6.5 embryos within uterine horns. SD, standard deviation. D, Quantitation of spacing using method depicted in (C). *p<0.05, unpaired t test.
It was hypothesized that administration of AM, an endocrine factor critical for a healthy pregnancy, to female mice would improve uterine receptivity and implantation rates. […] Dams were euthanized three days later, and the number and spacing of the viable implantation sites were evaluated.
Using this conceptually simple but elegant in vivo experiment, it was concluded that delivery of AM directly into the uterine lumen prior to the establishment of pregnancy promotes blastocyst implantation. This conclusion was arrived at by quantitating the number and spacing of viable implantation sites in uterine horns that were treated with either vehicle or AM prior to blastocyst transfer.

Test [2] deals with wild-type mice. The experiment in a line: Pinopode formation and size in uteri treated for 30 min (scanning electron micrographs). The settings on record: AM 150 pmol, vs vehicle. The method, then: A, Scanning electron micrographs of pinopodes in wild type uteri treated with vehicle, AM, or AM+AM(24-50) for 30 minutes. Scale bars, 5 μm. B-D, Quantitation of pinopodes per field (B), size (C), and percent area of field (D). n=3 animals, n>4 fields per animal. ***p<0.001, unpaired t test.
The effect of AM on pinopode formation and size was studied. Wild-type mice were treated with vehicle, AM (150 pmol), or AM (150 pmol)+AM(24-50) (2 nmol) for 30 min and the amount and size of pinopodes was quantitated (FIGS. 3A-3D).

On to “adrenomedullin (YRQSMNNFGGLRSFGCRFGTCTVQKLAHQIYQFTDKDKDNVAPRSKISPQGY; disulfide 16-21 (inferred); ends not checked; listed as Homo sapiens) [AM, peptide vasodilator]”, for which, in the test with wild-type mice [1], the “rate of pinopode formation (pinopodes per field over time course)” value is reported as “accelerates pinopode formation”. In the test on BalbC mice (8 blastocysts per horn 5-10 min later), the “number of viable implantation sites per horn” value is on record as “improves implantation success; also recorded: significantly more embryo implantation sites; also recorded: significantly more viable implantation sites”. In addition, the “spacing of viable implantation sites” value with BalbC mice (8 blastocysts per horn) is “improves implantation success and spacing; also recorded: evenly distributed throughout the length of the horn; also recorded: more evenly distributed throughout the length of the horn”. For the same substance, in the test with wild-type mice [2], the “pinopode formation (pinopodes per field)” value is on record as “promotes pinopode formation”; the pinopode size result is “promotes pinopode formation and size”.
